Consider nine molecules from US5340829A, “Immunoregulatory agents” (priority 1992, dated 1994).

For experiment [1], the system named is delayed-type hypersensitivity (DTH). Kind of experiment: DTH ear swelling, comparison of sorbinil, tolrestat, WF-3681 and NSAIDs (Experiment 23, TABLE 5). It counts as in vivo, mice. The conditions noted are these: for Effect on DTH as measured by ear swelling (in words): mouse, in vivo. On the procedure:
Delayed type hypersensitivity, which involves the participation of T lymphocytes and macrophages, can be studied in vivo by exposing (or priming) a mammal to a novel antigen and then reexposing (or challenging) the primed animal to the same antigen four to seven days later. The classic DTH response includes symptoms of inflammatory response, induration and erythema, which peak at 24 to 48 hours after challenging and then decline slowly.
Eight-week old female C57BL/6J mice (Jackson Labs) were divided into primed and unprimed groups. The five mice in the primed group were primed to 2,4-dinitrofluorobenzene (DNFB; Sigma Chemical Co., Grade 1, approx. 98%, Lot 129C-0065, No. d-6879) by painting their shaved ventral skins with 0.1 ml of 0.5% DNFB in ethanol:acetone (3:1). The five mice in the unprimed group were shaved and topically painted on their ventral skins with the ethanol:acetone (3:1) vehicle alone. The mice in both groups were challenged with DNFB four days later. A suitable patch of skin, the ear, was chosen for challenging. One ear was designated for challenging and the other to serve as a control. The thickness of each ear across the pinna was measured using micrometer calipers. The first measurements were taken four days after priming and are plotted as day 0 in FIG. 13. Next, each mouse was subjected to the following challenge regimen: one ear was challenged with one drop of 0.35% DNFB in olive oil, and the other (unchallenged control) ear was exposed to olive oil alone. The ear thicknesses (ET) of the challenged ear and the unchallenged ear were measured daily, and the swelling responses are plotted in FIG. 13 as: [formula]
Three groups of eight-week old female C57BL/6J mice were primed to DNFB as previously described. […] Six hours later the first sets of ear measurements were taken, and one ear of each mouse was challenged.
The Table has 4 columns, listing (left to right) each drug tested in column 1, drug concentrations in column 2, relative swelling in column 3, and effectiveness in column 4.

A further experiment addresses aldose reductase. The conditions noted are these: approximate molar concentration necessary for 50% inhibition of aldose reductase; cited from earlier work.
Experiment [2] concerns Human polymorphonuclear leukocytes (PMNs). The conditions noted are these: known from the art; cited from earlier work.
The test system of experiment [3] is ear swelling in response to PMA. The conditions noted are these: general statement on NSAIDs; cited from earlier work.
Experiment [4] deals with Human polymorphonuclear leukocytes (PMNs). Briefly: LTB4 release by polymorphonuclear leukocytes (Experiment 10). It counts as cell-based. The conditions noted are these: normal human PMNs. An excerpt:
Human polymorphonuclear leukocytes (PMNs) were used to study LTB4 release, which is known to be involved in inflammation.

Experiment [5] relates to ear swelling produced by topical application of arachidonic acid. Briefly: Ear swelling produced by topical arachidonic acid (Experiment 22). It counts as in vivo, mice. As to conditions: topical administration.
[6] abbreviates: concentration 8.5 μM, 0 = no effect.

“Also recorded” adds a separate entry of the source.

Consider `CC(=O)Nc1ccc(O)cc1` [Acetaminophen, acetaminophen], for which, in experiment [1] (concentration 8.5 μM), the “relative swelling (R)” value was 1.0. For the same molecule, the “effectiveness (1 - R) (100%)” value in experiment [1] (setting [6]) amounted to 0%. In addition, the “Effect on DTH as measured by ear swelling (in words)” value (“Effect on DTH as measured” for short) in experiment [1] is listed as “not effective in preventing DTH”.

Turning to `CC(=O)Oc1ccccc1C(=O)O` [Aspirin, acetylsalicylic acid], the IC50 (as a rule, the concentration that gives 50% inhibition) on aldose reductase was around 100 µM. In experiment [2], the “LTB4 production (known)” value is given as “inhibit LTB4 production”. The “relative swelling (R)” value in experiment [1] (concentration 8.5 μM) was found to be 1.0. Further, the “effectiveness (1 - R) (100%)” value in experiment [1] (setting [6]) is recorded as 0%. Moreover, the “Effect on DTH as measured” value in experiment [1] was “not effective in preventing DTH; also recorded: failed to inhibit DTH”. Further, the “Swelling of mouse ears in response to PMA (NSAIDs, stated in contrast)” value in experiment [3] is recorded as “inhibit this response”.

With `O=c1c(O)c(-c2ccccc2)oc2ccccc12` [Hydroxyflavone, 3-hydroxyflavone], at aldose reductase, the concentration for half-maximal inhibition (IC50) is around 1 µM.

With `CC(C)Cc1ccc(C(C)C(=O)O)cc1` (centres unmarked) [Ibuprofen, ibuprofen], the “relative swelling (R)” value in experiment [1] (concentration 8.5 μM) is given as 1.0. The “effectiveness (1 - R) (100%)” value in experiment [1] (setting [6]) was found to be 0%. Also, in experiment [1], the “Effect on DTH as measured” value is recorded as “not effective in preventing DTH”.

For `CCC1(c2ccccc2)C(=O)NC(=O)NC1=O` [Phenobarbital, phenobarbital], at aldose reductase, the IC50 is around 1000 µM.

As to `C[C@@H]1O[C@@H](Oc2c(-c3ccc(O)c(O)c3)oc3cc(O)cc(O)c3c2=O)[C@H](O)[C@H](O)[C@H]1O` [Quercitrin, quercitrin], in experiment [1] (concentration 3 μM), the “effectiveness (1 - R) (100%)” value is 2% and the “relative swelling (R)” value is 0.98. Also, in experiment [1], the “Effect on DTH as measured” value is “not effective in preventing DTH”.

As for `O=C(O)CCC1OC(=O)C(O)=C1c1ccccc1` (centres unmarked) [WF-3681, 3-(2,5-dihydro-4-hydroxy-5-oxo-3-phenyl-2-furyl)propionic acid], the “effectiveness (1 - R) (100%)” value in experiment [1] (concentration 2.125 μM) was determined as 4%; in experiment [1] (concentration 4.25 μM) it was 39%. In addition, the results for the “relative swelling (R)” value in experiment [1] (concentration 2.125 μM), in experiment [1] (concentration 4.25 μM) and in experiment [1] (concentration 6 μM) were 0.96, 0.62 and 0.68, respectively. For the same molecule, the “Effect on DTH as measured” value in experiment [1] is “strong and substantially identical inhibitory effect”. The “Production of LTB4” value in experiment [4] is given as “no effect”.

For the molecule `COc1ccc2c(c1)c(CC(=O)O)c(C)n2C(=O)c1ccc(Cl)cc1` [indomethacin], the “Ear swelling produced by topical arachidonic acid” value in experiment [5] was “completely inhibited”.

`CC1=C(/C=C/C(C)=C/C=C/C(C)=C/C(=O)O)C(C)(C)CCC1` [retinoic acid]: in experiment [2], the “LTB4 production (known)” value is “inhibit LTB4 production”.
